In ChEMBL document CHEMBL4321867, “Optimization of LpxC Inhibitor Lead Compounds Focusing on Efficacy and Formulation for High Dose Intravenous Administration” (J Med Chem, 2020):
Values after ≈ are worked out from the molar mass of the structure shown.

How the values were obtained:
Pseudomonas aeruginosa = test: microbe, parasite or virus in culture; details: ATCC 27853
[1] = system: T1, UDP-3-O-acyl-N-acetylglucosamine deacetylase (Pseudomonas aeruginosa (strain ATCC 15692 / PAO1 / 1C / PRS 101 / LMG12228)), P47205 [C40S]; details: 25 uM
T1 sequence (whole entry): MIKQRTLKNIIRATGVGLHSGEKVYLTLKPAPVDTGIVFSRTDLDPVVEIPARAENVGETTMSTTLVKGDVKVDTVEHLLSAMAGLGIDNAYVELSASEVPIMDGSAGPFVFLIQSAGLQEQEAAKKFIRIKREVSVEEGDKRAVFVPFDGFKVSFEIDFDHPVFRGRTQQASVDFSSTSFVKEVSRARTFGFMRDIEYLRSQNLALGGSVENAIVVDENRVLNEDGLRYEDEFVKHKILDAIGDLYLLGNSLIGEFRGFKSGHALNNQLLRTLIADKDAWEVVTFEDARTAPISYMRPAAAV

Escherichia coli = test: microbe, parasite or virus in culture; details: ATCC 25922
physchem [2] = details: buffer, pH 4
physchem [3] = details: buffer, pH 9
physchem [4] = test: physchem
physchem [5] = details: buffer, pH 7
Klebsiella pneumoniae = test: microbe, parasite or virus in culture; details: T6474
physchem [6] = details: n-octanol/phosphate buffer, pH 7.4
[7] = system: T2, UDP-3-O-acyl-N-acetylglucosamine deacetylase (Escherichia coli K-12), P0A725 [C125S]; details: 25 uM
T2 sequence (whole entry): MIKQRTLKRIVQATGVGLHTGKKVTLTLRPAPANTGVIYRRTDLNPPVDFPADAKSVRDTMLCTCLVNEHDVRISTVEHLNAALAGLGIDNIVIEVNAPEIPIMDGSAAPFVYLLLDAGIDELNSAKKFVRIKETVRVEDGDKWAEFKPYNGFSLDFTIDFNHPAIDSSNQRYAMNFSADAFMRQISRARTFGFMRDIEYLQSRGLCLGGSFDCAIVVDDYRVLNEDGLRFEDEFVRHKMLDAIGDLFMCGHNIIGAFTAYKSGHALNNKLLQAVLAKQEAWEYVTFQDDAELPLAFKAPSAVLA

SMILES | MIC (Pseudomonas aeruginosa) [µg/mL] | deltaTm [1] [K] | MIC (Escherichia coli) [µg/mL] | solubility at 24 h (physchem [2]) [µg/mL] | solubility at 24 h (physchem [3]) [µg/mL] | pKa (physchem [4]) | solubility at 24 h (physchem [5]) [µg/mL] | MIC (Klebsiella pneumoniae) [µg/mL] | logD (physchem [6]) | deltaTm [7] [K]
C[C@@](CCN1Cc2cc(C#CC#CC3(CN)CC3)cn2C1=O)(C(=O)NO)S(C)(=O)=O | 16 (≈ 37 µM) | 10.7 | 8 (≈ 18.5 µM) | > 730 | > 730 | 9.2 | 552 (≈ 1280 µM) | 16 (≈ 37 µM) | -0.4 | 9.6
CCN1CC(C#CC#Cc2cc3n(c2)C(=O)N(CC[C@](C)(C(=O)NO)S(C)(=O)=O)C3)C1 | 0.5 (≈ 1.12 µM) | 10.4 | 0.25 (≈ 0.56 µM) | > 750 | > 750 | 8.5 | > 750 | 0.5 (≈ 1.12 µM) | 0.6 | 9.3
CNC1(C#CC#Cc2cc3n(c2)C(=O)N(CC[C@](C)(C(=O)NO)S(C)(=O)=O)C3)CC1 | 0.5 (≈ 1.16 µM) | 12.2 | 0.12 (≈ 0.277 µM) | 551 (≈ 1270 µM) | 486 (≈ 1120 µM) | 6.5 | 182 (≈ 421 µM) | 0.25 (≈ 0.578 µM) | 1.4 | 10.6
C[C@@](CCN1Cc2cc(C#CC#CCN3CCC(O)CC3)cn2C1=O)(C(=O)NO)S(C)(=O)=O | 1 (≈ 2.1 µM) | 11.5 | 1 (≈ 2.1 µM) | > 810 | > 810 | 6.5 | > 810 | 2 (≈ 4.2 µM) | 0.4 | 9.5
C[C@@](CCN1Cc2cc(C#CC#CC3CN(CC(F)F)C3)cn2C1=O)(C(=O)NO)S(C)(=O)=O | 1 (≈ 2.07 µM) | 13.2 | 0.06 (≈ 0.124 µM) | > 820 | > 820 | 5.2 | 209 (≈ 433 µM) | 0.25 (≈ 0.518 µM) | 1.4 | 10.6
CN1CCC(F)(C#CC#Cc2cc3n(c2)C(=O)N(CC[C@](C)(C(=O)NO)S(C)(=O)=O)C3)CC1 | 1 (≈ 2.09 µM) | 12 | 0.5 (≈ 1.04 µM) | > 810 | 203 (≈ 424 µM) | 8 | 384 (≈ 802 µM) | 1 (≈ 2.09 µM) | 1 | 9.6
C[C@@](CCN1Cc2cc(C#CC#CC3CCN(C4COC4)CC3)cn2C1=O)(C(=O)NO)S(C)(=O)=O | 2 (≈ 3.98 µM) | 13.2 | 0.5 (≈ 0.995 µM) | > 850 | > 850 | 6.2 | 329 (≈ 655 µM) | 1 (≈ 1.99 µM) | 1.1 | 11.1
C[C@@](CCN1Cc2cc(C#CC#CC3CN(C4COC4)C3)cn2C1=O)(C(=O)NO)S(C)(=O)=O | 1 (≈ 2.11 µM) | 12.6 | 0.25 (≈ 0.527 µM) | > 800 | 681 (≈ 1440 µM) | 5.5 | 128 (≈ 270 µM) | 0.5 (≈ 1.05 µM) | 0.5 | 10.5
CN1CC(F)(C#CC#Cc2cc3n(c2)C(=O)N(CC[C@](C)(C(=O)NO)S(C)(=O)=O)C3)C1 | 2 (≈ 4.44 µM) | 11.6 | 0.12 (≈ 0.266 µM) | > 760 | > 760 | 6.7 | 219 (≈ 486 µM) | 0.5 (≈ 1.11 µM) | 1.1 | 8.1
CN1CC(C#CC#Cc2cc3n(c2)C(=O)N(CC[C@](C)(C(N)=O)S(C)(=O)=O)C3)C1 | > 32 | 0.3 | > 32 | > 700 | 92 (≈ 221 µM) | 8.4 | 706 (≈ 1700 µM) | > 32 | 0.5 | 0
C[C@@](CCN1Cc2cc(C#CC#CC3(F)CNC3)cn2C1=O)(C(=O)NO)S(C)(=O)=O | 2 (≈ 4.58 µM) | 10 | 1 (≈ 2.29 µM) | > 740 | 279 (≈ 639 µM) | 8 | 175 (≈ 401 µM) | 2 (≈ 4.58 µM) | 0.3 | 7.1
CC(C)N1CC(C#CC#Cc2cc3n(c2)C(=O)N(CC[C@](C)(C(=O)NO)S(C)(=O)=O)C3)C1 | 0.5 (≈ 1.09 µM) | 11.2 | 0.25 (≈ 0.543 µM) | > 780 | 420 (≈ 912 µM) | 8.3 | 398 (≈ 864 µM) | 0.25 (≈ 0.543 µM) | 1 | 9.6
CN1CCC(C#CC#Cc2cc3n(c2)C(=O)N(CC[C@](C)(C(=O)NO)S(C)(=O)=O)C3)CC1 | 1 (≈ 2.17 µM) | 11.3 | 4 (≈ 8.69 µM) | > 780 | 574 (≈ 1250 µM) | 9 | > 780 | 4 (≈ 8.69 µM) | 0.2 | 10.6
C[C@@](CCN1Cc2cc(C#CC#CC3CNC3)cn2C1=O)(C(=O)NO)S(C)(=O)=O | 1 (≈ 2.39 µM) | 9.3 | 8 (≈ 19.1 µM) | > 710 | > 710 | 9.4 | > 710 | 4 (≈ 9.56 µM) | -1 | 8
CC(=O)N1CC(C#CC#Cc2cc3n(c2)C(=O)N(CC[C@](C)(C(=O)NO)S(C)(=O)=O)C3)C1 | 1 (≈ 2.17 µM) | 12.4 | 1 (≈ 2.17 µM) | > 780 | > 780 | – | > 780 | 1 (≈ 2.17 µM) | 0.3 | 9.7
